Source: patent US12649751B2 (Arcus Biosciences, Inc., priority 2022, dated 2026)

target: HPK1 (Homo sapiens, UniProt Q92918); test: HPK1 Biochemical Assay (ADP-Glo luminescence; low ATP 10 μM or high ATP 200 μM); settings: 2 nM HPK1, 10 μM ATP; read-out: Biochemical Potency (low ATP)
Experimental: Dose-response assays were performed in Corning® Low Volume 384-well assay plates containing 100 nL of 22 serial 2-fold compound dilutions. Wells containing DMSO alone were used as negative control. A kinase mixture (5 μL) containing 2 nM HPK1 (or 5 nM for high ATP assay) in assay buffer (50 mM Hepes pH 7.4, 10 mM MgCl2, 0.01% Brij-15, 0.01% bovine serum albumin, and 1 mM dithiothreitol) was added to the assay plates and incubated at 25° C. for 1 hour. Wells without HPK1 were used as positive control. A […] of 10 μM ATP (or 200 μM for high ATP) and 0.2 μg/μL […] was then added to the wells, resulting in a 10 μL total reaction volume. Following incubation of the assay plates at 25° C. for 1 hour, 10 μL of ADP-Glo reagent was added to the wells and the plates were incubated at 25° C. for a further 40 minutes (or 1 hour for high ATP assay). Finally, 20 μL of Kinase Detection Reagent was added, and the plates were incubated for another 30 minutes at 25° C. An Envision plate reader was then used to detect the luminescence signals. IC50 values were determined by fitting the data to a standard 4-parameter logistic equation. The results are summarized in the Biochemical Potency columns of Tables 4 and 5 below (Biochemical Potency (high ATP); Biochemical Potency (low ATP)).

HPK1, sequence (Q92918 whole entry, species assumed): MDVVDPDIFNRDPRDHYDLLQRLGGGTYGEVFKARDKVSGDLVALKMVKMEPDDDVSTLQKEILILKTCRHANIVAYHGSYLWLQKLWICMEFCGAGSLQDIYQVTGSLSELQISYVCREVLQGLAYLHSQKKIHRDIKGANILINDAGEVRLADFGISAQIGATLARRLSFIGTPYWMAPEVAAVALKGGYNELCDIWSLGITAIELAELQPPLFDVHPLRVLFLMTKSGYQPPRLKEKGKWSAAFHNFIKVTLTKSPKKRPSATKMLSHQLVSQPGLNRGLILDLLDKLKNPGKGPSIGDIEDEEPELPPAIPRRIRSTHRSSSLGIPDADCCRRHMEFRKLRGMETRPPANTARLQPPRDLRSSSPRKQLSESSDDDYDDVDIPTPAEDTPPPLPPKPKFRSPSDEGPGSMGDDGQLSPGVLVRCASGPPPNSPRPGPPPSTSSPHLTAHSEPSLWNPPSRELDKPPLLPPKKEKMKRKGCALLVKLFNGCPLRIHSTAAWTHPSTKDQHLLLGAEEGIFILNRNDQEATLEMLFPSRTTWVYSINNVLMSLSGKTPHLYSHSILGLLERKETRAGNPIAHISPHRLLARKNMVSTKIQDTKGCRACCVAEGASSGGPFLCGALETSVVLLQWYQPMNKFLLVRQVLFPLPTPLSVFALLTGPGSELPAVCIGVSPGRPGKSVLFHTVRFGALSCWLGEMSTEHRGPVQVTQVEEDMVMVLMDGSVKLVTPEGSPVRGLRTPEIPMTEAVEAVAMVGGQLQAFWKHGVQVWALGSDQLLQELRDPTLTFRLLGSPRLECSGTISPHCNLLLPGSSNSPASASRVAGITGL

Structure (SMILES) | IC50
Fc1ccc(-c2nc3cc(Nc4ccc(N5CCOCC5)c(CN5CCCC5)n4)ncc3s2)cc1 [Example 22, N-[2-(4-Fluorophenyl)-[1,3]thiazolo[5,4-c]pyridin-6-yl]-5-(morpholin-4-yl)-6-[(pyrrolidin-1-yl)methyl]pyridin-2-amine] | < 100 nM
c1cc(C2CCOCC2)c(CN2CCCC2)nc1Nc1cc2nc(N3C[C@H]4C[C@@H]3CO4)sc2cn1 [Example 238, N-{2-[(1R,4R)-2-Oxa-5-azabicyclo[2.2.1]heptan-5-yl]-[1,3]thiazolo[5,4-c]pyridin-6-yl}-5-(oxan-4-yl)-6-[(pyrrolidin-1-yl)methyl]pyridin-2-amine] | 100 to 1000 nM
CN1C[C@@H]2C[C@H]1CN2c1cncc(Nc2cc3nc(-c4ccnc(C(C)(C)O)c4)sc3cn2)n1 [Example 151, 2-{4-[6-({6-[(1S,4S)-5-Methyl-2,5-diazabicyclo[2.2.1]heptan-2-yl]pyrazin-2-yl}amino)-[1,3]thiazolo[5,4-c]pyridin-2-yl]pyridin-2-yl}propan-2-ol] | < 100 nM
CN1C[C@@H]2C[C@H]1CN2c1ccnc(Nc2cc3nc(-c4cccc(C(=O)N5CCCC5)c4)sc3cn2)n1 [Example 245, 4-[(1S,4S)-5-Methyl-2,5-diazabicyclo[2.2.1]heptan-2-yl]-N-{2-[3-(pyrrolidine-1-carbonyl)phenyl]-[1,3]thiazolo[5,4-c]pyridin-6-yl}pyrimidin-2-amine] | 100 to 1000 nM
CN(C)S(=O)(=O)c1cccc(-c2nc3cc(Nc4cccc(N5C[C@@H]6C[C@H]5CN6)n4)ncc3s2)c1 [Example 293] | < 100 nM
CN1C[C@@H]2C[C@H]1CN2c1nccc(Nc2cc3nc(-c4ccnc(C(C)(C)O)c4)sc3cn2)n1 [Example 121, 2-{4-[6-({2-[(1S,4S)-5-Methyl-2,5-diazabicyclo[2.2.1]heptan-2-yl]pyrimidin-4-yl}amino)-[1,3]thiazolo[5,4-c]pyridin-2-yl]pyridin-2-yl}propan-2-ol] | < 100 nM
Cc1cccnc1-c1nc2cc(Nc3cncc(N4C[C@@H](N)C[C@H]4CO)n3)ncc2s1 [Example 150, [(2S,4S)-4-Amino-1-(6-{[2-(3-methylpyridin-2-yl)-[1,3]thiazolo[5,4-c]pyridin-6-yl]amino}pyrazin-2-yl)pyrrolidin-2-yl]methanol] | < 100 nM
Cc1cccnc1-c1nc2cc(Nc3ccc(C)c(N4C[C@H]5CC[C@@H](C4)[C@H]5O)n3)ncc2s1 [Example 106, (1R,5S,8S)-3-(3-Methyl-6-{[2-(3-methylpyridin-2-yl)-[1,3]thiazolo[5,4-c]pyridin-6-yl]amino}pyridin-2-yl)-3-azabicyclo[3.2.1]octan-8-ol] | < 100 nM
Cc1cccnc1-c1nc2cc(Nc3cccc(N4C[C@@H]5C[C@H]4CN5C4CCOCC4)n3)ncc2s1 [Example 117, N-[2-(3-Methylpyridin-2-yl)-[1,3]thiazolo[5,4-c]pyridin-6-yl]-6-[(1S,4S)-5-(oxan-4-yl)-2,5-diazabicyclo[2.2.1]heptan-2-yl]pyridin-2-amine] | < 100 nM
Cc1cccnc1-c1nc2cc(Nc3cccc(N4CC5CCC(C4)N5C)n3)ncc2s1 [Example 107, 6-{8-Methyl-3,8-diazabicyclo[3.2.1]octan-3-yl}-N-[2-(3-methylpyridin-2-yl)-[1,3]thiazolo[5,4-c]pyridin-6-yl]pyridin-2-amine] | < 100 nM
Cc1ccc(Nc2cc3nc(-c4ncccn4)sc3cn2)nc1CN1CCCC1 [Example 55, 5-Methyl-N-[2-(pyrimidin-2-yl)-[1,3]thiazolo[5,4-c]pyridin-6-yl]-6-[(pyrrolidin-1-yl)methyl]pyridin-2-amine] | 100 to 1000 nM
Cc1cc(Nc2cc3nc(-c4cc(C#N)ccc4C)sc3cn2)nc(O[C@H]2CCNC2)c1 [Example 176, 4-Methyl-3-(6-{[4-methyl-6-((3S)-pyrrolidin-3-yloxy)pyridin-2-yl]amino}-[1,3]thiazolo[5,4-c]pyridin-2-yl)benzonitrile] | < 100 nM
Cc1cccnc1-c1nc2cc(Nc3ccc(C)c(N4C[C@@H](N)C[C@@H]4CO)n3)ncc2s1 [Example 68, [(4S)-4-Amino-1-(3-methyl-6-{[2-(3-methylpyridin-2-yl)-[1,3]thiazolo[5,4-c]pyridin-6-yl]amino}pyridin-2-yl)pyrrolidin-2-yl]methanol] | < 100 nM

Continued, values first:

IC50 | Structure (SMILES)
< 100 nM | Cc1cccnc1-c1nc2cc(Nc3ccc(C)c(N4C[C@H](N)C[C@@H]4CO)n3)ncc2s1 [Example 67, [(2R,4R)-4-Amino-1-(3-methyl-6-{[2-(3-methylpyridin-2-yl)-[1,3]thiazolo[5,4-c]pyridin-6-yl]amino}pyridin-2-yl)pyrrolidin-2-yl]methanol]
< 100 nM | Cc1cccnc1-c1nc2cc(Nc3cccc(N4CCN(C)[C@H](C)C4)n3)ncc2s1 [Example 104, 6-[(3R)-3,4-Dimethylpiperazin-1-yl]-N-[2-(3-methylpyridin-2-yl)-[1,3]thiazolo[5,4-c]pyridin-6-yl]pyridin-2-amine]
100 to 1000 nM | Cc1cccnc1-c1nc2cc(Nc3ccc(C(F)(F)F)c(CN4CCCC4)n3)ncc2s1 [Example 59, N-[2-(3-Methylpyridin-2-yl)-[1,3]thiazolo[5,4-c]pyridin-6-yl]-6-[(pyrrolidin-1-yl)methyl]-5-(trifluoromethyl)pyridin-2-amine]
< 100 nM | Cc1cccnc1-c1nc2cc(Nc3ccc(C4CCOCC4)c(CN4CC[C@@H](F)C4)n3)ncc2s1 [Example 213, 6-{[(3R)-3-Fluoropyrrolidin-1-yl]methyl}-N-[2-(3-methylpyridin-2-yl)-[1,3]thiazolo[5,4-c]pyridin-6-yl]-5-(oxan-4-yl)pyridin-2-amine]
< 100 nM | Cc1ccc(Nc2cc3nc(-c4ncccc4C)sc3cn2)nc1OC1CCNC1 (stereo not drawn) [Example 162, 5-Methyl-N-[2-(3-methylpyridin-2-yl)-[1,3]thiazolo[5,4-c]pyridin-6-yl]-6-(pyrrolidin-3-yloxy)pyridin-2-amine]

same assay, conditions: Biochemical Potency (low ATP), 2 nM HPK1, 10 μM ATP

Structure (SMILES) | IC50
Cc1ccc(Nc2cc3nc(-c4ccncc4)sc3cn2)nc1CN1CCCC1 [Example 35, 5-Methyl-N-[2-(pyridin-4-yl)-[1,3]thiazolo[5,4-c]pyridin-6-yl]-6-[(pyrrolidin-1-yl)methyl]pyridin-2-amine] | < 100 nM

same assay, conditions: HPK1 ADP-Glo assay, high ATP (200 μM ATP, 5 nM HPK1); read-out: Biochemical Potency (high ATP)

IC50 | Structure (SMILES)
< 100 nM | Cc1cc(Nc2cc3nc(-c4cccc(C(=O)N(C)C[C@@H]5CCOC5)c4)sc3cn2)nc(N2C[C@@H]3C[C@H]2CN3CCO)n1 [Example 557]

same assay, conditions: HPK1 ADP-Glo assay, low ATP (10 μM ATP, 2 nM HPK1); read-out: Biochemical Potency (low ATP)

Structure (SMILES) | IC50
Cc1ccnn1-c1nc2cc(Nc3ccc4c(n3)C(C)(N)CC4)ncc2s1 (stereo not drawn) [Example 579] | < 100 nM
Cc1cccnc1-c1nc2cc(Nc3cccc(C4(O)C[C@@H]5CC4CN5)n3)ncc2s1 (stereo partly drawn) [Example 314, 5-{6-[2-(3-methyl-2-pyridyl)-3-thia-1,5-diaza-6-indenylamino]-2-pyridyl}-2-azabicyclo[2.2.1]heptan-5-ol] | < 100 nM
CN1C[C@@H]2C[C@H]1CN2c1cncc(Nc2cc3nc(-c4cccc(C(C)(C)O)c4)sc3cn2)n1 [Example 418] | < 100 nM
CNS(=O)(=O)c1cccc(-c2nc3cc(Nc4cccc(N5C[C@@H]6C[C@H]5CN6)n4)ncc3s2)c1 [Example 324] | < 100 nM

Continued, values first:

IC50 | Structure (SMILES)
< 100 nM | CN1C[C@@H]2C[C@H]1CN2c1nccc(Nc2cc3nc(-c4ccnc5c4cnn5C)sc3cn2)n1 [Example 411]
< 100 nM | CN1C[C@@H]2C[C@H]1CN2c1nccc(Nc2cc3nc(-c4ccnc(N5CC[C@@H](F)C5)c4)sc3cn2)n1 [Example 461]
100 to 1000 nM | CN1C[C@@H]2C[C@H]1CN2c1nccc(Nc2cc3nc(N4CCc5ccncc5C4)sc3cn2)n1 [Example 427]
